Laboratory results: ChEMBL document CHEMBL1201862, “PubChem BioAssay data set” (2004)
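Values below derive from 48-hour exposures of cells grown in 96-well plates, with endpoints linearly interpolated between the two concentrations bracketing the appropriate inhibition level. GI50 = concentration required for 50% inhibition of growth.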 Calls of active or inactive are those of the source. Cut-off read from the data, not from the text of the source: active = GI50 up to about 1.1 µM and inactive = higher.

Columns and labels:
Assay in all cases: growth of human tumour cells (NCI), 48 h
SK-MEL-28 = test system: SK-MEL-28
KM12 = test system: KM12
NCI/ADR-RES = test system: NCI/ADR-RES
SK-MEL-5 = test system: SK-MEL-5
HL-60 = test system: HL-60
COLO 205 = test system: COLO 205
SK-OV-3 = test system: SK-OV-3
MOLT-4 = test system: MOLT-4
IGROV-1 = test system: IGROV-1
HT-29 = test system: HT-29
HOP-62 = test system: HOP-62
A549 = test system: A549
LOX IMVI = test system: LOX IMVI
U-251 = test system: U-251
UACC-257 = test system: UACC-257
CCRF-CEM = test system: CCRF-CEM
M14 = test system: M14
RPMI-8226 = test system: RPMI-8226
SF-268 = test system: SF-268
NCI-H522 = test system: NCI-H522

Measured: GI50

O=C(NCCOC(=O)OCCNC(=O)NC1CCCCC1)NC1CCCCC1
inactive: SK-MEL-28 > 100 µM | KM12 > 100 µM | NCI/ADR-RES > 100 µM | SK-MEL-5 > 100 µM | HL-60 > 100 µM | COLO 205 > 100 µM | SK-OV-3 92.5 µM | MOLT-4 > 100 µM | IGROV-1 > 100 µM | HT-29 > 100 µM | HOP-62 35.6 µM | A549 > 100 µM | LOX IMVI > 100 µM | U-251 > 100 µM | UACC-257 > 100 µM | CCRF-CEM > 100 µM | M14 > 100 µM | RPMI-8226 > 100 µM | SF-268 > 100 µM | NCI-H522 > 100 µM

C/C(=N\OCC(O)CNCCSCc1ccccc1)c1ccccc1Cl (stereo not given)
inactive: SK-MEL-28 20.7 µM | KM12 18.6 µM | NCI/ADR-RES 19.1 µM | SK-MEL-5 17.1 µM | HL-60 24 µM | COLO 205 19.2 µM | SK-OV-3 19.2 µM | MOLT-4 47.5 µM | HT-29 20.6 µM | HOP-62 19.4 µM | A549 19.6 µM | LOX IMVI 16.8 µM | UACC-257 18.5 µM | CCRF-CEM 28.6 µM | M14 21.8 µM | RPMI-8226 21.8 µM | SF-268 17.3 µM | NCI-H522 28.7 µM

Cc1ccc(C(=O)Cc2nc3c([nH]c2=O)c(C)nn3-c2ccccc2)c(C)c1
inactive: SK-MEL-28 > 10 µM | KM12 > 10 µM | NCI/ADR-RES 6.53 µM | SK-MEL-5 > 10 µM | HL-60 9.04 µM | COLO 205 > 10 µM | SK-OV-3 > 10 µM | MOLT-4 > 10 µM | IGROV-1 > 10 µM | HT-29 > 10 µM | HOP-62 > 10 µM | A549 6.85 µM | LOX IMVI > 10 µM | U-251 > 10 µM | UACC-257 > 10 µM | CCRF-CEM 5.69 µM | M14 > 10 µM | RPMI-8226 > 10 µM | SF-268 > 10 µM | NCI-H522 > 10 µM

Cc1cc(=O)n2nc(CCl)sc2n1
inactive: SK-MEL-28 13.2 µM | KM12 12.1 µM | NCI/ADR-RES 20.7 µM | SK-MEL-5 10.6 µM | HL-60 17.3 µM | COLO 205 18.7 µM | SK-OV-3 15.5 µM | MOLT-4 11.8 µM | IGROV-1 14.9 µM | HT-29 14.8 µM | HOP-62 18.1 µM | A549 16.5 µM | LOX IMVI 4.19 µM | U-251 5.13 µM | UACC-257 10.2 µM | CCRF-CEM 6.62 µM | M14 11.2 µM | RPMI-8226 10.6 µM | SF-268 15.8 µM | NCI-H522 5.57 µM

CC12CCC(=O)[C@@]1(C)CCCC2O (stereo not given in full)
inactive: SK-MEL-28 > 100 µM | KM12 > 100 µM | NCI/ADR-RES > 100 µM | SK-MEL-5 > 100 µM | HL-60 > 100 µM | COLO 205 > 100 µM | SK-OV-3 > 100 µM | MOLT-4 > 100 µM | IGROV-1 > 100 µM | HT-29 > 100 µM | HOP-62 > 100 µM | A549 > 100 µM | LOX IMVI > 100 µM | U-251 > 100 µM | UACC-257 > 100 µM | CCRF-CEM > 100 µM | M14 > 100 µM | RPMI-8226 > 100 µM | SF-268 > 100 µM | NCI-H522 > 100 µM

CN(C1=NCCO1)c1cccc2ccccc12
inactive: SK-MEL-28 > 10 µM | KM12 > 10 µM | NCI/ADR-RES > 10 µM | SK-MEL-5 > 10 µM | HL-60 > 10 µM | COLO 205 > 10 µM | SK-OV-3 > 10 µM | MOLT-4 > 10 µM | IGROV-1 > 10 µM | HT-29 > 10 µM | HOP-62 > 10 µM | A549 > 10 µM | LOX IMVI > 10 µM | U-251 > 10 µM | CCRF-CEM > 10 µM | M14 > 10 µM | RPMI-8226 > 10 µM | SF-268 > 10 µM | NCI-H522 > 10 µM

COc1ccc(/C=C2\C[C@H]3[C@@H]4CCC5=C/C(=N/O)CC[C@]5(C)[C@H]4CC[C@]3(C)\C2=N\O)cc1OC
inactive: SK-MEL-28 88.5 µM | KM12 8.04 µM | NCI/ADR-RES 26.4 µM | SK-MEL-5 2.75 µM | HL-60 4.72 µM | SK-OV-3 39.3 µM | MOLT-4 5.79 µM | IGROV-1 47.4 µM | HT-29 7.66 µM | HOP-62 40.6 µM | A549 6.98 µM | LOX IMVI 18.8 µM | UACC-257 6.07 µM | CCRF-CEM 6.76 µM | M14 40.2 µM | RPMI-8226 4.49 µM | SF-268 51.6 µM | NCI-H522 23.1 µM

CC1(C)CN=C(Nc2ccc(F)cc2)S1
inactive: SK-MEL-28 > 100 µM | KM12 > 100 µM | NCI/ADR-RES > 100 µM | SK-MEL-5 > 100 µM | HL-60 > 100 µM | COLO 205 > 100 µM | SK-OV-3 > 100 µM | MOLT-4 > 100 µM | IGROV-1 > 100 µM | HT-29 > 100 µM | HOP-62 > 100 µM | A549 > 100 µM | LOX IMVI > 100 µM | U-251 > 100 µM | UACC-257 > 100 µM | CCRF-CEM > 100 µM | M14 > 100 µM | RPMI-8226 > 100 µM | SF-268 > 100 µM | NCI-H522 > 100 µM
